{"source": "patent US8957098B2", "about": "(ALGIAX Pharmaceuticals GmbH, priority 2010, dated 2015)", "key": {"[1]": {"test_system": "severe spinal cord contusion injury in the rat", "assay": "BBB open field locomotor rating scale after severe spinal cord contusion injury", "format": "in vivo", "conditions": "Example 2; 20 mg/kg/day by gavage for 7 days; effect distinct from DPO 7 to DPO 63 (ANOVA-RM p=0.002); vehicle 8.3", "quoted_text": "The BBB score is scaled from 0 to 21 points, a BBB score of 0 represents a complete paralysis of the hind limbs and a BBB score of 21 represents normal locomotion. […]\nThe BBB locomotor rating scale was used according to the present disclosure to assess general locomotor performance. The score was assessed before injury and at 1, 3, 5, 7, 14, 21, 35, 42, 49, 56 and 63 days post operation (dpo) by 2 blinded observers."}, "[2]": {"test_system": "severe spinal cord contusion injury in the rat", "assay": "Explorative rearing test after severe spinal cord contusion injury", "format": "in vivo", "conditions": "Example 1; 20 mg/kg/day by gavage for 7 days", "method": "Thirteen week-old female Lewis rats (Charles River, Sulzfeld Germany) were housed under a 12:12 h dark/light regime and allowed free access to water and food. After one week of habituation the animals underwent general anesthesia with a mixture of isoflurane and air (induction: 5% isoflurane, maintenance: 2.2% isofluorane). A Th10 laminectomy was performed without rupturing the dura and a severe contusive SCI (25 gem NYU/MASCIS II impactor) {Gruner, 1992 #3} was induced. After suturing muscle and skin, a subcutaneous (s.c.) injection of 5 ml of Ringers Lactate was given. Bladders were emptied manually 2 times a day until spontaneous voiding returned (usually within 1 week). The lesion severity was verified by the impact velocity and contusion depth of the impactor rod. Animals with an impact velocity error >5% were excluded from further analysis. After injury, individual rats were randomly assigned into a treatment group. The following groups were used:\nWhen placed in a Plexiglas cylinder (18 cm diameter×35.0 cm height), animals spontaneously rear and contact the walls with their forepaws. Numbers, duration and types of rears were analyzed during the 3-min recorded observation period in the cylinder (Himes et al., 2006; Shumsky et al., 2003). A mirror was placed at an angle behind the cylinder so that the forelimbs could be viewed at all times. The testing session was videotaped, and rearing behaviour was scored blindly at a later date.\nDifferent types of rears of increasing heights were observed: • LEVEL 1: Crouch—Animals lifted both forepaws off the ground up to 10 cm; • LEVEL 2: Rear—Animals reared and extended the trunk with the hindlimbs flexed reaching a height between 10 and 15 cm; • LEVEL 3: Stand—Animals reared and extended the trunk with the hindlimbs extended reaching a height over 15 cm.\nOccasionally an animal progressed through several types of rears before touching down, in which case the time the animal spend in each rearing height was measured by counting the single video frames. […]"}}}
{"smiles": "Cc1cc(NC(=O)/C(C#N)=C(\\O)C2CC2)ccc1C(F)(F)F", "note": "[HR325, 1(3-methyl-4-trifluoromethylphenyl-carbamoyl)-2-cyclopropyl-2oxo-propionitrile]", "values": [{"measurement": "BBB score at steady state", "setting": "[1]", "result": "around 10"}]}
{"smiles": "Cc1oncc1C(=O)Nc1ccc(C(F)(F)F)cc1", "note": "[Leflunomide, N-(4-trifluoromethylphenyl)-5-methylisoxazol-4-carboxamide]", "values": [{"measurement": "exploring time of healthy control animals at LEVEL 3 (>15 cm) compared with treated animals", "setting": "[2]", "result": "significantly longer"}, {"measurement": "rearing attempts (time and height reached by forepaws) vs vehicle control animals", "setting": "[2]", "result": "longer in time and that the forepaws reached higher levels"}, {"measurement": "significantly less time in LEVEL 2 (10-15 cm) when compared to healthy control animals", "setting": "[2]", "result": "this is not the case"}]}
